According to patent US20220177446A1, “ALKYNE COMPOUNDS AS IRAK INHIBITORS, PREPARATION METHODS AND MEDICINAL USES THEREOF” (Eternity Bioscience Inc., priority 2020, published 2022):
Where two headings read alike, the source gives them in different places.

Tests used:
IRAK4 = target: T1, IRAK4 (Homo sapiens, UniProt Q9NWZ3); test: IRAK4 Human PBMC TNFα Cell Based Assay (AlphaLISA); details: TNFα measured
T1 construct: host or cells: human peripheral blood mononuclear cells (PBMCs)
T1 sequence (Q9NWZ3 1-460): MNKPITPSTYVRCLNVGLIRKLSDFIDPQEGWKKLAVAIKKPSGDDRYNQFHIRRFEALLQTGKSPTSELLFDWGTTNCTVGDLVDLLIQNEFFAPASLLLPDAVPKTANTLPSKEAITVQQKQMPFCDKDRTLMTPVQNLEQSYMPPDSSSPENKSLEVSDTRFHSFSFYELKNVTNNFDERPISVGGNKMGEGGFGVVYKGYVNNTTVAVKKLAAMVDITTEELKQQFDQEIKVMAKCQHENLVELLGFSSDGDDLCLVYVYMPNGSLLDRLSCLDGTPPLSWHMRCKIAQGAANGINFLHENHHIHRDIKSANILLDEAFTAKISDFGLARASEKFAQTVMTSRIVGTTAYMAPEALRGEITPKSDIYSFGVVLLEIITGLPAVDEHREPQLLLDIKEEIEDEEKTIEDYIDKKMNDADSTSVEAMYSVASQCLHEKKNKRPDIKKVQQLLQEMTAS
Procedure: In this assay, serially diluted compounds were incubated with 1×10^4 human peripheral blood mononuclear cells (PBMCs) from STEMCELL (Cat #70025.1) per well of 384-well plate (Fisher Scientific; 50-905-2761) and cultured with TexMACS medium (Miltenyi, Cat #130-097-196), stimulated by R848 (0.5 μM) or IL-1β (10 ng/ml). Plates were covered with lids and incubated for 4 h (R848, Fisher Scientific, Cat #NC9801605) or 24 h (IL-1β, Fisher Scientific, Cat #ENRIL1BI) at 37° C. in a humidified tissue-culture incubator. After a brief centrifugation at 1000 rpm for 5 minutes, 5 μl of culture medium was used for the measurement of the TNFα amount using TNFα (human) AlphaLISA Detection Kit (PerkinElmer, Cat #AL208C) according to manufacturer's protocol. A biotinylated anti-TNFα antibody binds to the Streptavidin-coated Donor beads while another anti-TNFα antibody is conjugated to AlphaLISA Acceptor beads. In the presence of the TNFα, the beads come into close proximity. The excitation of the Donor beads causes the release of singlet oxygen molecules that triggers a cascade of energy transfer in the Acceptor beads, resulting in a sharp peak of light emission at 615 nm. AlphaLISA assay plates were read using PHERAstar. Percentage of inhibition was calculated as below:
(§1) % inhibition=(1−(Reading(Sample)−Reading(Negative Control))/(Reading(Positive Control)−Reading(Negative Control)))×100%
The 0% inhibition value comes from the Reading of Positive Control wells having 0 nM compound. The 100% inhibition value comes from the Reading of Negative Control wells having no R848 or IL-1β.

[1] = target: T2, full length human IRAK4 protein (Homo sapiens, UniProt Q9NWZ3); test: IRAK4 Biochemical Assay (Promega ADP-Glo IRAK4 Kinase Enzyme System); details: 3 nM enzyme, 250 μM ATP; for IC50: 2 μM MBP, 60 min at room temperature; for IRAK4 Biochemical Assay Max Inhibition (%): maximum inhibition
T2 construct: Purified full length human IRAK4 protein; purchased Signal Chem I12-10G-125
T2 sequence (Q9NWZ3 1-460): T1 sequence (Q9NWZ3 1-460)
Procedure: For the routine compound screening, an IRAK4 kinase assay was performed as follows using Promega ADP-Glo IRAK4 Kinase Enzyme System (Promega, Cat #2198-AD). Purified full length human IRAK4 protein (Signal Chem; Cat #I12-10G-125) was diluted to a concentration 6 nM in assay buffer (25 mM MOPS, pH 7.2, 12.5 mM β-glycerol-phosphate, 25 mM MgCl2, 5 mM EGTA, 2 mM EDTA, 0.0025% Brij-35, add 0.25 mM DTT to Kinase Assay Buffer prior to use) containing IRAK4 inhibitor at 2× the final concentration in 0.4% DMSO. The reaction was performed in PerkinElmer Proxiplate-384 plus white plate (Fisher Scientific, Cat #50-905-2761) and started by the addition of an equal volume of the assay buffer containing 4 μM native swine myelin basic protein (MBP) and 500 μM ATP to achieve a final concentration of 3 nM enzyme, 2 μM MBP, 250 μM ATP, 1× compound, and 0.2% DMSO. The kinase reaction was allowed to run for 60 min at room temperature (25-27° C.), then 5 μL of ADP-Glo was added to the reaction in each well followed by 40 minutes-incubation at RT. To detect converted […], 10 μL Detection Buffer was added into each well and Incubate at RT in dark for 30 minutes. Finally, luminescence was read using Tecan with 1000 ms of integration time. The luminescent signal positively correlates with ADP amount and kinase activity. Data was analyzed by GraphPad Prism and IC50 was calculated using function log(inhibitor) vs. response—Variable slope (four parameters). Percentage of inhibition was calculated as below:
as §1
The 0% inhibition value comes from the Reading of Positive Control wells having 0 nM compound. The 100% inhibition value comes from the Reading of Negative Control wells having no IRAK4 kinase.

[2] = human PBMCs stimulated by IL-1β (10 ng/ml), 24 h, read-out: IRAK4 PBMC AlphaLISA IL-1β (IC50)
[3] = human PBMCs stimulated by R848 (0.5 μM), 4 h, read-out: IRAK4 PBMC AlphaLISA R848 (IC50)

| SMILES | IC50 (IRAK4; [2]) [nM] | IC50 (IRAK4; [3]) [nM] | IC50 [1] [nM] | IRAK4 Biochemical Assay Max Inhibition (%) [1] [%] |
| --- | --- | --- | --- | --- |
| COc1cc2c(OC[C@@H]3CCC(=O)N3)ncc(C#CCN(C)C)c2cc1C(N)=O [Example 8, (S)-4-(3-(dimethylamino)prop-1-yn-1-yl)-7-methoxy-1-((5-oxopyrrolidin-2-yl)methoxy)isoquinoline-6-carboxamide] | 128 | 175 | 7.5 | 97.0 |
| CC[C@@H]1[C@H](F)C(=O)N[C@@H]1COc1ccc(C#CC(C)(C)O)c2cc(C(N)=O)c(OC)cc12 [Example 31, 5-(((2S,3S,4S)-3-ethyl-4-fluoro-5-oxopyrrolidin-2-yl)methoxy)-8-(3-hydroxyl-3-methylbut-1-yn-1-yl)-3-methoxy-2-naphthamide] | 5.6 | 8.3 | 32 | 95.0 |
| CC[C@@H]1[C@H](F)C(=O)N[C@@H]1COc1ncc(C#CC(C)(C)NC(=O)OC(C)(C)C)c2cc(C(N)=O)c(OC)cc12 [Example 1, tert-butyl (4-(6-carbamoyl-1-(((2S,3S,4S)-3-ethyl-4-fluoro-5-oxopyrrolidin-2-yl)methoxy)-7-methoxyisoquinolin-4-yl)-2-methylbut-3-yn-2-yl)carbamate] | 18.1 | 16 | 8.4 | 100.0 |
| CC[C@@H]1[C@H](F)C(=O)N[C@@H]1COc1ccc(C#CC(C)(C)N(C)C)c2cc(C(N)=O)c(OC)cc12 [Example 33, 8-(3-(dimethylamino)-3-methylbut-1-yn-1-yl)-5-(((2S,3S,4S)-3-ethyl-4-fluoro-5-oxopyrrolidin-2-yl)methoxy)-3-methoxy-2-naphthamide] | 41 | 25 | 13 | 99.0 |
| CC[C@@H]1[C@H](F)C(=O)N[C@@H]1COc1ccc(C#CCN(C)C)c2cc(C(N)=O)c(OC)cc12 [Example 15, 8-(3-(dimethylamino)prop-1-yn-1-yl)-5-(((2S,3S,4S)-3-ethyl-4-fluoro-5-oxopyrrolidin-2-yl)methoxy)-3-methoxy-2-naphthamide] | 1.3 | 1.7 | 12 | 101.0 |
| CC[C@@H]1[C@H](F)C(=O)N[C@@H]1COc1ncc(C#CC(C)(C)N(C)C)c2cc(C(N)=O)c(OC(C)C)cc12 [Example 35, 4-(3-(dimethylamino)-3-methylbut-1-yn-1-yl)-1-(((2S,3S,4S)-3-ethyl-4-fluoro-5-oxopyrrolidin-2-yl)methoxy)-7-isopropoxyisoquinoline-6-carboxamide] | 110 | 36 | 39 | 93.0 |
| COc1cc2c(OC[C@@H]3CCC(=O)N3)ncc(C#Cc3ccc(C)cc3)c2cc1C(N)=O [Example 7, (S)-7-methoxy-1-((5-oxopyrrolidin-2-yl)methoxy)-4-(p-tolylethynyl)isoquinoline-6-carboxamide] | 89 | 150 | – | – |
| COCC#Cc1cnc(OC[C@@H]2CCC(=O)N2)c2cc(OC)c(C(N)=O)cc12 [Example 9, (S)-7-methoxy-4-(3-methoxyprop-1-yn-1-yl)-1-((5-oxopyrrolidin-2-yl)methoxy)isoquinoline-6-carboxamide] | 110 | 140 | 14 | 100.0 |

The remaining lines, values ahead:

| IC50 (IRAK4; [2]) [nM] | IC50 (IRAK4; [3]) [nM] | IC50 [1] [nM] | IRAK4 Biochemical Assay Max Inhibition (%) [1] [%] | SMILES |
| --- | --- | --- | --- | --- |
| 1.3 | 1.6 | 18 | 95.0 | CC[C@@H]1[C@H](F)C(=O)N[C@@H]1COc1ncc(C#Cc2cnccn2)c2cc(C(N)=O)c(OC)cc12 [Example 13, 1-(((2S,3S,4S)-3-ethyl-4-fluoro-5-oxopyrrolidin-2-yl)methoxy)-7-methoxy-4-(pyrazin-2-ylethynyl)isoquinoline-6-carboxamide] |
| 3.9 | 5 | 27 | 103.0 | CC[C@@H]1[C@H](F)C(=O)N[C@@H]1COc1ncc(C#CCOC)c2cc(C(N)=O)c(OC(C)C)cc12 [Example 25, 1-(((2S,3S,4S)-3-ethyl-4-fluoro-5-oxopyrrolidin-2-yl)methoxy)-7-isopropoxy-4-(3-methoxyprop-1-yn-1-yl)isoquinoline-6-carboxamide] |
| – | – | 68 | 100.0 | CC[C@@H]1[C@H](F)C(=O)N[C@@H]1COc1ncc(C#Cc2nn[nH]n2)c2cc(C(N)=O)c(OC)cc12 [Example 10, 4-((2H-tetrazol-5-yl)ethynyl)-1-(((2S,3S,4S)-3-ethyl-4-fluoro-5-oxopyrrolidin-2-yl)methoxy)-7-methoxyisoquinoline-6-carboxamide] |
| 8.7 | 1.7 | 19 | 99.0 | CC[C@@H]1[C@H](F)C(=O)N[C@@H]1COc1ncc(C#Cc2ncccn2)c2cc(C(N)=O)c(OC)cc12 [Example 16, 1-(((2S,3S,4S)-3-ethyl-4-fluoro-5-oxopyrrolidin-2-yl)methoxy)-7-methoxy-4-(pyrimidin-2-ylethynyl)isoquinoline-6-carboxamide] |
| 1.5 | 2.4 | 32 | 100.0 | CC[C@@H]1[C@H](F)C(=O)N[C@@H]1COc1ncc(C#Cc2cnn(C)c2)c2cc(C(N)=O)c(OC)cc12 [Example 17, 1-(((2S,3S,4S)-3-ethyl-4-fluoro-5-oxopyrrolidin-2-yl)methoxy)-7-methoxy-4-((1-methyl-1H-pyrazol-4-yl)ethynyl)isoquinoline-6-carboxamide] |
| 17 | 11 | 45 | 99.0 | CC[C@@H]1[C@H](F)C(=O)N[C@@H]1COc1ncc(C#CC(C)(C)C)c2cc(C(N)=O)c(OC)cc12 [Example 32, 4-(3,3-dimethylbut-1-yn-1-yl)-1-(((2S,3S,4S)-3-ethyl-4-fluoro-5-oxopyrrolidin-2-yl)methoxy)-7-methoxyisoquinoline-6-carboxamide] |
| – | – | 5.7 | 98.0 | CC[C@@H]1[C@H](F)C(=O)N[C@@H]1COc1ncc(C#CC(=O)O)c2cc(C(N)=O)c(OC)cc12 [Example 4, 3-(6-carbamoyl-1-(((2S,3S,4S)-3-ethyl-4-fluoro-5-oxopyrrolidin-2-yl)methoxy)-7-methoxyisoquinolin-4-yl)propiolic acid] |
